Measurements published in PMC4180444 (Toxicology letters, 2014).
Values joined by “and” are separate entries in the source; they are usually repeats but may differ in a detail not shown here. Equal entries are not always repeated. “Also recorded” adds a separate entry of the source. Where two headings read alike, the source gives them in different places.

Columns and labels:
[1] = target: T1, human PPARγ (Homo sapiens, UniProt P37231); format: cell-based; settings: for PPARγ agonist activity (result in words): 24 hr exposure, vs vehicle control; for fold increase in PPARγ activity relative to vehicle control: 10-fold concentration intervals (Fig. 4)
T1 sequence (P37231 1-505): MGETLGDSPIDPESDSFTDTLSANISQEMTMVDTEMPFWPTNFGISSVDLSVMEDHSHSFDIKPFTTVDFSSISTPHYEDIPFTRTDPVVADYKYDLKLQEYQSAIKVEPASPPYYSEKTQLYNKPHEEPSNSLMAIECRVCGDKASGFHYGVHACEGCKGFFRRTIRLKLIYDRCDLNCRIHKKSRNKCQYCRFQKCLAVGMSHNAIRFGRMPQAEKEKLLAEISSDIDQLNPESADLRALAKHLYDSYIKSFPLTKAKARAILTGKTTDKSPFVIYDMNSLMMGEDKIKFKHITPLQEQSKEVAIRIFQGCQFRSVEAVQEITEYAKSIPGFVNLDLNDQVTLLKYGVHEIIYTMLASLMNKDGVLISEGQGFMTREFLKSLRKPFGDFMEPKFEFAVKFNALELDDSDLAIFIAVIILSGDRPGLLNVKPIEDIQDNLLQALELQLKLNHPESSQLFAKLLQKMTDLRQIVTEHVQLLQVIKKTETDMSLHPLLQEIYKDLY

[2] = tested on: caspase 3 activity in D283 Med cells; assay: caspase 3 activity assay in cell lysates; format: cell-based, human; settings: 6 hour exposure
[3] = tested on: D283 Med cells; assay: MTS viability assay; format: cell-based, human; settings: 1 μM to 30 μM, 48 hour exposure (Fig. 6 legend)
[4] = tested on: CHO PPARγ reporter cells; format: cell-based, Chinese Hamster; settings: 0.1 μM to 100 μM; 24 hr

CCCCC(CC)COC(=O)c1cc(Br)c(Br)c(Br)c1Br (stereo not shown) [TBB, 2-ethylhexyl-2,3,4,5-tetrabromobenzoate]
PPARγ agonist activity (result in words) [1]: No statistical differences; also recorded: No activity

C=[CH][Sn]([CH2]CCC)([CH2]CCC)[CH2]CCC [TBVT, Tributyl(vinyl)tin, reference compound]
Concentration of maximal PPARγ activity observed [1]: 10 µM | fold increase in PPARγ activity relative to vehicle control ([1]; 10 μM (10^-5 M)): 3 fold and 3.3 ± 0.3 fold

O=P(Oc1ccccc1)(Oc1ccccc1)Oc1ccccc1 [TPP, triphenyl phosphate]
concentration above which caspase activity significantly increased [2]: above 1 μM | effect on caspase 3 activity [2]: significant dose dependent increases in caspase 3 activities | effect on viability [3]: decreased viability | Concentration of maximal PPARγ activity observed [1]: 30 µM | fold increase in PPARγ activity relative to vehicle control ([1]; 10 μM (10^-5 M)): 6.23 ± 0.63 fold and 6.2 fold | fold increase in PPARγ activity ([1]; 30 μM, focused analysis with half-log (3-fold) increments (Fig. 5)): 20 ± 2.2 fold | fold increase in PPARγ activity relative to vehicle control ([1]; 100 μM): 2.84 ± 0.34 fold | PPARγ agonist activity (result in words) [1]: Significant agonist activity | relative maximal PPARγ activity, percent of TPT Cl ([1]; TPP at 30 μM): 57% ± 6% | effect on cell viability [4]: dose dependent decreases in cell viability

[Cl][Sn]([c]1ccccc1)([c]1ccccc1)[c]1ccccc1 [TPT Cl, triphenyltin chloride, reference compound]
Concentration of maximal PPARγ activity observed [1]: 0.1 µM | concentration above which PPARγ activity decreased ([1]; non-monotonic concentration response): > 0.1 µM | AC50 ([1]; read-out: AC50, concentration eliciting half-maximal response, 4-parameter variable slope model): 3 nM and 3.3 nM
